In data set [1] the test system is HeLa cells. In words: Live-cell confocal microscopy of NBD-ceramide. In kind it is cell-based. Conditions: 40 μg/mL loaded O-GNRs or equal NBD-ceramide in ethanol; one hour. The method, then: In order to visualize the uptake of ceramide-loaded nanoparticles into cells, we loaded O-GNRs with C6 ceramide conjugated to 4-Chloro-7-nitrobenzofurazan (NBD-ceramide). HeLa cells were seeded in glass-inset confocal dishes at a density of 7.5×10^4 cells/mL with 2 mL per plate and allowed to adhere overnight. The following day, cells were placed in a LiveCell™ stage top incubation platform (Pathology Devices Inc., Westminster, Md., USA) and NBD-ceramide-loaded O-GNRs were added to these plates at a concentration of 40 μg/mL. As a control, cells were also incubated with an equivalent amount of NBD-ceramide in ethanol in a separate experiment. The cells were then imaged using a Leica TCS SP8 Laser Scanning Confocal Microscope System (Buffalo Grove, Ill., USA) over a period of one hour at two minute intervals.

The test system of data set [2] is HeLa cells. The experiment in a line: Confocal microscopy of C12 NBD ceramide. It is filed as cell-based. The conditions noted are these: 2 hours. The method, then: C12 NBD ceramide was loaded onto O-GNRs using the same procedure as C24 and C16 ceramide. HeLa cells were seeded in glass-inset confocal dishes at a density of 7.5×10^4 cells/mL with 2 mL per plate and allowed to adhere overnight. Cells were treated with either 5 μM fluorescent C12 NBD ceramide or an equivalent amount of fluorescent C12 NBD ceramide loaded on O-GNRs for 2 hours and imaged using a Leica TCS SP8 Laser Scanning Confocal Microscope System (Buffalo Grove, Ill., USA). Cells were pretreated with inhibitors of O-GNR uptake Dynasore and Gefitinib, endosome disruptor Desipramine, or no treatment for 30 minutes prior to the addition of ceramide or ceramide-loaded O-GNRs.

Another data set has as its system CMV/U251. The experiment in a line: Annexin V/PI staining, flow cytometry. Conditions: 4 hours; for % AV+ / % PI + AV+ / % PI+ / % PI−AV−: CMV/U251, free or on GONR. In kind it is cell-based. As to the method: (§1) Luc alone and Luc-loaded O-GNR-PEG-DSPEs at different concentrations (5-80 μM) were incubated with CMV/U251, A1-5/CMV/U251 and CG-4 (5×10^5 cells/3 mL in 6-well plates) for 4 hours. Unexposed cells were used as control. Unloaded O-GNR-PEG-DSPEs in amounts equivalent to the loaded nanoparticles were also exposed to all the cell types as delivery agent control. The viability of the cells was analyzed by flow cytometry after Annexin V/PI staining using FACS Calibur Cell Sorter (BD Biosciences, San Jose, Calif.).
(§2) Annexin V (AV) is a 35 KDa phospholipid binding protein with an affinity for phosphotidyl serine. Early apoptotic cells show exposed phosphotidyl serine on their cell surface while it is still intact. PI on the other hand can only enter dead cells or early necrotic cells with compromised membranes. Thus, in flow cytometry AV+/PI+ represents dead cells, AV+/PI− represents cells in early apoptosis, AV−/PI+ represents dead or necrotic cells with compromised membranes, and AV−/PI− represents healthy living cells. […] However, 37% of cells were still living after 4 hours of exposure to O-GNR-PEG-DSPE loaded with 80 μM Luc.
A general note: In flow cytometry, cells or beads pass a laser one at a time.

For the next data set, the system named is A1-5/CMV/U251. The experiment in a line: Annexin V/PI staining, flow cytometry. It is filed as cell-based. The conditions noted are these: 4 hours; for % AV+ / % PI + AV+ / % PI+ / % PI−AV−: A1-5/CMV/U251, free or on GONR. The method, then: as §1, §2
Data set [3] is described as follows: PrestoBlue assay, separate cultures. It is filed as cell-based. The conditions noted are these: human, separate culture, 80 μM Luc free or loaded, read-out: viability compared to untreated controls. The method, then:
(§3) Luc alone (80 μM), 80 μM Luc loaded O-GNR-PEG-DSPE and O-GNR-PEG-DSPE (same weight as used for Luc loading) were incubated with CMV/U251, A1-5/CMV/U251, MCF-7 and CG-4 cells (5×10^3 cells per well in 96 well plates) for 24 hours. Following the incubation period the media was removed and the cells were washed twice with 1×PBS. 100 μL of fresh media was added to each well, as well as 10 μL of PrestoBlue® to each well, and incubated for 4 hours. Fluorescence was measured by Cytofluor fluorescence multiwell plate reader (Infinite M200, Tecan Group Ltd, NC, USA) with excitation at 530 nm, and emission at 580 nm.
(§4) The cell viability in terms of % of unexposed cells is expressed as the percentage of (Ftest−Fblank)/(Fcontrol−Fblank), where Ftest is the fluorescence of the cells exposed to nanoribbon-drug sample, Fcontrol is the fluorescence of the untreated sample and Fblank is the fluorescence of the wells without any cells. The PrestoBlue® reading for all lysed cells was also taken for comparison.

For a further data set, the system named is MCF-7. In words: PrestoBlue assay, separate cultures. In kind it is cell-based. The conditions noted are these: 80 μM Luc free or loaded; 24 hours. The method, then:
as §3, §4

Data set [4] is described as follows: PrestoBlue assay, MCF-7-CMV/U251 co-culture. In kind it is cell-based. The conditions noted are these: human, read-out: viability compared to untreated controls. The method, then: (§5) MCF-7, CG-4 and CMV/U251 were seeded separately on 12 mm round glass coverslips (Fisherbrand, Fisher Scientific, PA) in 100 mm plates at a density of 2.2×10^6 cells and allowed to grow overnight. For the two separate co-culture condition experiments, one coverslip from each cell line was placed in 6 well plates, for a total of two coverslips per well. These cells were then incubated with Luc alone (80 μM), 80 μM Luc loaded O-GNR-PEG-DSPE or O-GNR-PEG-DSPE for 24 h. After the incubation period, the media was removed and the cells were washed twice with 1×PBS. Each coverslip was then transferred to its own well in 6 well plates containing 3 mL of media and 300 μL of PrestoBlue® reagent. After incubating for 4 h, the fluorescence intensity was recorded using the procedure described above.

Data set [5] in a line: PrestoBlue assay, CG-4-CMV/U251 co-culture. It is filed as cell-based. The conditions noted are these: read-out: viability compared to untreated controls. As to the method: as §5
The next data set has as its system CG-4. In words: PrestoBlue assay, separate cultures. Conditions: 80 μM Luc free or loaded; 24 hours. In kind it is cell-based, rat. As to the method:
as §3, §4

The test system of data set [6] is HeLa cells. In words: PrestoBlue viability assay, C6 ceramide. It is filed as cell-based. Conditions: 8 μg/mL of C6; 24 hrs. The method, then:
HeLa cells were seeded in flat-bottomed 96 well plates at a density of 5000 cells/well and were allowed to adhere overnight. Ceramide-loaded nanoparticles (O-GNRs or GNPs) were added to each well at various concentrations ranging from 10-100 μg/mL of nanoparticles. In order to ensure that any observed decrease in viability compared to untreated cells could not be attributed to the loading process, the loading process was repeated with only nanoparticles and incubated them with HeLa cells at the highest concentration used (100 μg/mL). After 24 hours, the media was aspirated and each well was rinsed twice with PBS. […] After 2 hours, the plates were removed and the fluorescence intensity of each well was measured using a Molecular Devices SpectraMax M2e (Sunnyvale, Calif., USA) with an excitation wavelength of 560 nm and an emission wavelength of 590 nm. […] The cell viability is expressed as a percent of the […] with the formula: […]
where Itest is the fluorescence intensity of cells exposed to ceramide-loaded nanoparticles, Icontrol is the fluorescence intensity of […], and Iblank is the fluorescence intensity from empty wells.
In a separate experiment, the efficacy of ceramide-loaded O-GNRs were compared to C6 ceramide without nanoparticles placed directly in the media. […] Viability was assessed with PrestoBlue using identical methods as described above.

Data on four molecules can be found in patent publication US20180147296A1, “CARBON MATERIAL DELIVERY SYSTEMS AND METHODS” (The Research Foundation for The State University of New York, priority 2015, published 2018).

Molecules are shown by their SMILES.

As to `CCCCCCCCCCCCC/C=C/C(O)C(CO)NC(=O)CCCCCNc1ccc([N+](=O)[O-])c2nonc12` [NBD ceramide, C6 N-[6-[(7-nitro-2-1,3-benzoxadiazol-4-yl)amino]hexanoyl]-D-erythro-sphingosine], the “uptake of NBD ceramide into cells (fluorescence)” value in the data set with HeLa cells [1] was “rapid uptake”.
As to `CCCCCCCCCCCCC/C=C/[C@@H](O)[C@H](CO)NC(=O)CCCCCCCCCCCNc1ccc([N+](=O)[O-])c2nonc12` [C12 NBD ceramide], the “fluorescence compared with cells not treated with inhibitor” value in the data set with HeLa cells [2] (pretreated with Dynasore 30 minutes) and in the data set on HeLa cells [2] (pretreated with Gefitinib 30 minutes) was “no difference” throughout. In the data set with HeLa cells [2] (pretreated with desipramine 30 minutes), the “endosome localization compared with cells not treated with desipramine” value is recorded as “significantly less endosome localization”.
Regarding `CCN(CC)CCNc1ccc(C)c2sc3ccccc3c(=O)c12` [Lucanthone], the cell death with CMV/U251 (80 μM free Luc) and with A1-5/CMV/U251 (40 μM free Luc) was 100% throughout. Besides, the “% AV+” value with CMV/U251 (5 μM lucanthone) is listed as 0%; in the data set on CMV/U251 (10 μM lucanthone), 0%; in the data set on CMV/U251 (20 μM lucanthone), 0%; with CMV/U251 (40 μM lucanthone) it was 0%; in the data set on CMV/U251 (80 μM lucanthone) it was 5%; in the data set on A1-5/CMV/U251 (5 μM lucanthone), 0%. Moreover, the “% AV+” value with A1-5/CMV/U251 (10 μM lucanthone), with A1-5/CMV/U251 (20 μM lucanthone), in the data set on A1-5/CMV/U251 (40 μM lucanthone) and in the data set with A1-5/CMV/U251 (80 μM lucanthone) was 0% throughout. For the same molecule, the “% PI + AV+” value is recorded as 17% with CMV/U251 (5 μM lucanthone); 0% in the data set with CMV/U251 (10 μM lucanthone); 0% in the data set with CMV/U251 (20 μM lucanthone); 0% in the data set on CMV/U251 (40 μM lucanthone); 0% in the data set on CMV/U251 (80 μM lucanthone); 0% in the data set on A1-5/CMV/U251 (5 μM lucanthone). Also, the “% PI + AV+” value in the data set on A1-5/CMV/U251 (10 μM lucanthone), in the data set on A1-5/CMV/U251 (20 μM lucanthone), in the data set on A1-5/CMV/U251 (40 μM lucanthone) and in the data set on A1-5/CMV/U251 (80 μM lucanthone) was 0% in each case. Besides, the “% PI+” value was 78% with CMV/U251 (5 μM lucanthone); 95% with CMV/U251 (10 μM lucanthone); 97% with CMV/U251 (20 μM lucanthone); 97% in the data set with CMV/U251 (40 μM lucanthone); 95% in the data set with CMV/U251 (80 μM lucanthone); 76% in the data set with A1-5/CMV/U251 (5 μM lucanthone). The “% PI+” value is given as 92% with A1-5/CMV/U251 (10 μM lucanthone), 98% in the data set with A1-5/CMV/U251 (20 μM lucanthone), 100% in the data set on A1-5/CMV/U251 (40 μM lucanthone) and 100% with A1-5/CMV/U251 (80 μM lucanthone). The “% PI−AV−” value was 20% with CMV/U251 (5 μM lucanthone); 5% in the data set with CMV/U251 (10 μM lucanthone); 3% in the data set with CMV/U251 (20 μM lucanthone); 3% in the data set on CMV/U251 (40 μM lucanthone); 0% with CMV/U251 (80 μM lucanthone); “no healthy living cells remaining” with CMV/U251 (80 μM lucanthone, listed as Luc). The “% PI−AV−” value in the data set on A1-5/CMV/U251 (5 μM lucanthone) worked out at 24%; with A1-5/CMV/U251 (10 μM lucanthone), 8%; in the data set on A1-5/CMV/U251 (20 μM lucanthone), 2%; with A1-5/CMV/U251 (40 μM lucanthone) it was 0%; with A1-5/CMV/U251 (80 μM lucanthone), 0%. Further, in the data set with CMV/U251 (CMV/U251 and A1-5/CMV/U251, 5-80 μM), the “nature of cell death (dead cells PI+/AV−)” value was “necrotic”. In addition, the viability at 24 h, 80 μM in data set [3] (A1-5/CMV/U251 cells) was approximately 30%; in data set [3] (CMV/U251 cells), approximately 40%; in data set [4] (CMV/U251 cells on coverslips, co-cultured with MCF-7 cells, CMV/U251 in co-culture with MCF-7, 80 μM Luc free or loaded, or carrier alone), approximately 28%; in [4] (MCF-7 cells on coverslips, co-cultured with CMV/U251 cells, MCF-7 in co-culture with CMV/U251, 80 μM Luc free or loaded, or carrier alone), approximately 36%; in [5] (human, CMV/U251 cells on coverslips, co-cultured with CG-4 cells, CMV/U251 in co-culture with CG-4, 80 μM Luc free or loaded) it was approximately 15%; in [5] (rat, CG-4 cells on coverslips, co-cultured with CMV/U251 cells, CG-4 in co-culture with CMV/U251, 80 μM Luc free or loaded) it was approximately 30%. In addition, the “toxicity (PrestoBlue)” value with MCF-7 and with CG-4 was “toxic” in each case.
On to `CCCCCCCCCCCCC/C=C/[C@@H](O)[C@H](CO)NC(=O)CCCCC` [C6 ceramide, C6-Ceramide], for which the “HeLa cell viability greater than lysed cells” value in the data set with HeLa cells [6] is recorded as 55.8%.

Broadly, the viability is the share of living cells, or the viability signal relative to a control.
